In patent publication US9254280B2, “Medical food for cognitive decline” (The Regents of the University of California, priority 2011, dated 2016):

Assays:
[1] = system: 3×AD Tg mice; experiment: Morris Water Maze, hidden platform, diet supplement study; assay type: in vivo
Text: (§1) Fisetin, a natural flavonoid enriched in strawberries, is neuroprotective and can improve cognitive function in various animal models including aging mice and beta amyloid plaque accumulating transgenic mice. We have tested 0.6% DHA alone, 500 ppm fisetin alone and DHA+fisetin in combination delivered as a food supplement (in chow) to older 3×AD Tg mice with combined amyloid and tau pathology. The study ran from ˜9 months to 13-14 months of age.

[2] = system: 3×AD Tg mice; experiment: Probe test (platform removed, time in target quadrant); assay type: in vivo; conditions: 60 seconds swim, dietary supplement
Text: as §1
FIG. 2. […] In this test the platform is removed, and the mice are allowed to swim for 60 seconds, while the time in the target quadrant is quantified.

O=c1c(O)c(-c2ccc(O)c(O)c2)oc2cc(O)ccc12 [fisetin, 2-(3,4-dihydroxyphenyl)-3,7-dihydroxy-4H-chromen-4-one]
Cognitive deficits ([1]; 0.6% DHA, 500 ppm fisetin, alone or combined, in chow, older 3×AD Tg mice, ~9 to 13-14 months of age): not by DHA alone or fisetin alone | time (latency) to find a hidden platform with additional blocks of training ([1]; 12-13 month old 3×AD Tg mice on control bad (high safflower oil) diet): no improvement | retention in the probe test (time in the target quadrant) [2]: also improved retention
